Test results taken from ChEMBL document CHEMBL4616643, “Cytotoxic and anti-inflammatory effects of lignans and diterpenes from Cupressus macrocarpa” (Bioorg Med Chem Lett, 2020).
Values after ≈ are worked out from the molar mass of the structure shown.

Experiments:
MDA-MB-231 = assay: Antiproliferative activity against human MDA-MB-231 cells assessed as inhibition of cell viability by MTT assay; type: functional, cell-based
A549 = assay: Antiproliferative activity against human A549 cells assessed as inhibition of cell viability by MTT assay; type: functional, cell-based
HepG2 = assay: Antiproliferative activity against human HepG2 cells assessed as inhibition of cell viability by MTT assay; type: functional, cell-based
Neutrophil [1] = assay: Anti-inflammatory activity against human neutrophils assessed as inhibition of fMLF/CB-induced superoxide anion generation at 10 uM preincubated for 5 mins followed by fMLF addition after priming with CB for 3 mins and measured after 10 mins by spectrophotometric analysis relative to control; type: functional
Neutrophil [2] = assay: Anti-inflammatory activity against human neutrophils assessed as inhibition of fMLF/CB-induced superoxide anion generation preincubated for 5 mins followed by fMLF addition after priming with CB for 3 mins and measured after 10 mins by spectrophotometric analysis; type: functional, cell-based
Neutrophil [3] = assay: Anti-inflammatory activity against human neutrophils assessed as inhibition in fMLF/CB-induced elastase release at 10 uM preincubated for 5 mins followed by fMLF addition after priming with CB for 3 mins and measured after 10 mins by spectrophotometric analysis relative to control; type: functional
Neutrophil [4] = assay: Anti-inflammatory activity against human neutrophils assessed as inhibition of fMLF/CB-induced elastase release preincubated for 5 mins followed by fMLF addition after priming with CB for 3 mins and measured after 10 mins by spectrophotometric analysis; type: functional, cell-based
[5] = Homo sapiens, MDA-MB-231, read-out: IC50
[6] = Homo sapiens, A549, read-out: IC50
[7] = Homo sapiens, HepG2, read-out: IC50

SMILES	IC50 (MDA-MB-231; [5])	IC50 (A549; [6])	inhibition at 10 µM (Neutrophil [1])	inhibition at 10 µM (Neutrophil [3])	further results
C=C(C=O)CC[C@H]1C(=C)CC[C@@H]2[C@]1(C)CCC[C@@]2(C)O	14.8 µg/mL (≈ 53.5 µM)				
COc1cc(C[C@H]2COC(=O)[C@@H]2Cc2ccc(O)c(OC)c2)ccc1O [MATAIRESINOL]			95.2%	61.9%	IC50 (HepG2; [7]): 15.1 µg/mL (≈ 42.1 µM); IC50 (Neutrophil [2]): 2.7 µM; IC50 (Neutrophil [4]): 6.6 µM
C=C1CC[C@@H]2[C@](C)(CCC[C@]2(C)C(=O)O)[C@H]1CC/C(C)=C/COC(C)=O	14.8 µg/mL (≈ 40.8 µM)	8.9 µg/mL (≈ 24.6 µM)			
C=C(CC[C@H]1C(=C)CC[C@H]2[C@@](C)(CO)CCC[C@]12C)C(=O)CO	19.9 µg/mL (≈ 62.1 µM)	19.8 µg/mL (≈ 61.8 µM)			
C=C(C=O)CC[C@H]1C(=C)CC[C@@H]2[C@]1(C)CCC[C@]2(C)C(=O)O	14.1 µg/mL (≈ 46.3 µM)				
COc1cc([C@@H]2c3cc4c(cc3C[C@H]3COC(=O)[C@@H]32)OCO4)cc(OC)c1OC [DESOXYPODOPHYLLOTOXIN]	0.07 µg/mL (≈ 0.176 µM)	0.004 µg/mL (≈ 0.01 µM)			IC50 (HepG2; [7]): 14.5 µg/mL (≈ 36.4 µM)
C=C1CC[C@@H]2[C@](C)(CCC[C@]2(C)C(=O)O)[C@H]1CC/C(C)=C/CO [ISOCUPRESSIC ACID]			78%	19.9%	IC50 (MDA-MB-231; mda-mb-231): Not Active; IC50 (A549; a549): Not Active; IC50 (HepG2; hepg2): Not Active; IC50 (Neutrophil [2]): 4.8 µM
C=C1CC[C@H]2[C@@](C)(CO)CCC[C@]2(C)[C@H]1CC/C(C)=C/CO			50.7%	22.3%	IC50 (Neutrophil [2]): 9.6 µM
C=C1CC[C@@H]2[C@](C)(CO)CCC[C@@]2(C)[C@@H]1CCC(C)=O			33.5%	15.7%	

The next lines start with results.

IC50 (MDA-MB-231; [5])	IC50 (A549; [6])	SMILES	inhibition at 10 µM (Neutrophil [1])	inhibition at 10 µM (Neutrophil [3])	further results
1.1 µg/mL (≈ 2.95 µM)	0.8 µg/mL (≈ 2.15 µM)	COc1cc(C[C@H]2C(=O)OC[C@@H]2Cc2ccc(OC)c(OC)c2)ccc1O [ARCTIGENIN]			IC50 (HepG2; [7]): 2.8 µg/mL (≈ 7.52 µM)
0.6 µg/mL (≈ 1.1 µM)	0.057 µg/mL (≈ 0.105 µM)	COc1cccc2c1C(=O)c1c(O)c3c(c(O)c1C2=O)C[C@@](O)(C(=O)CO)C[C@@H]3O[C@H]1C[C@H](N)[C@H](O)[C@H](C)O1 [DOXORUBICIN]			
